What is called IC50 is the concentration at which inhibition is half-maximal.

Among the data in patent publication US9187424B1, “Aryl dihydropyridinones and piperidinone MGAT2 inhibitors” (Bristol-Myers Squibb Company, priority 2011, dated 2015) are IC50 values, retold here.

The test has as its target Human MGAT-2 (Homo sapiens (Human), UniProt Q3SYC2). As to the kind of experiment: MGAT LCMS Assay (human MGAT-2).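 Also: diolein product quantified by LC/MS with positive APCI, expressed as peak area ratio versus an internal standard, and this ratio used to derive IC50.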 Type of test: biochemical. Conditions: human MGAT-2 membranes expressed in Sf9 cells; 2-oleoylglycerol and oleoyl-Coenzyme A; read-out: h-MGAT2 IC50 (nM) LCMS Assay.

Human MGAT-2, sequence (Q3SYC2 whole entry): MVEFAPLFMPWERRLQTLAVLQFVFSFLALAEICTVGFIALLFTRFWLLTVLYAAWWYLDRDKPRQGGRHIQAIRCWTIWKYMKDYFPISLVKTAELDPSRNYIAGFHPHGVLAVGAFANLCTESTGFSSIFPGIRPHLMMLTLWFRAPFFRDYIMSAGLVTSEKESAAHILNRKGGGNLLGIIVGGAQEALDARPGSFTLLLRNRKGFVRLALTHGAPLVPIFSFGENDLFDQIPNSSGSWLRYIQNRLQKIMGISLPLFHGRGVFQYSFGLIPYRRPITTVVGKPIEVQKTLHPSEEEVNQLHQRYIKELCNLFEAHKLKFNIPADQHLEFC

As for `N#CC1=C(c2ccc(OC(F)(F)F)c(F)c2)CC(c2ccc(OCCCC(F)(F)F)cc2)(C(F)(F)F)NC1=O` (stereo not shown) [Example 261], the half-maximal inhibitory concentration (IC50) turned out to be 1220 nM.

For the molecule `COc1ccc(C2=C(c3nn[nH]n3)C(=O)NC(c3ccc(OCCCC(F)(F)F)cc3)(C(F)(F)F)C2)cc1` (stereo not shown) [Example 193], the IC50 was 46 nM.

`Cc1ccc(C2=C(C(O)Nc3ccccc3)C(=O)NC(c3ccc(OCCCC(F)(F)F)cc3)(C(F)(F)F)C2)cc1` (stereo not shown) [Example 115]: the 50% inhibitory concentration (IC50) was 40 nM.

As to `COc1ccc(C2=C[C@@](c3ccc(OCCCC(F)(F)F)cc3)(C(F)(F)F)NC(=O)C2(F)C#N)cc1` (stereo in doubt) [Example 15-3, 3-Fluoro-4-(4-methoxyphenyl)-2-oxo-6-(4-(4,4,4-trifluorobutoxyl)phenyl)-6-(trifluoromethyl)-1,2,3,6-tetrahydropyridine-3-carbonitrile], the half-maximal inhibitory concentration (IC50) was 756 nM.

For `CCCCCNC(=O)c1ccc(C2(C)CC(c3ccc(C)cc3)=C(C(=O)Nc3ccc(OC)cc3)C(=O)N2)cc1` (stereo not shown) [Example 161], the IC50 amounted to 1260 nM.

Take `CCCCCCCC#CC1(C(F)(F)F)CC(c2ccc(C)cc2)=C(NC(=O)c2nnn[nH]2)C(=O)N1` (stereo not shown) [Example 311]: the concentration for half-maximal inhibition (IC50) amounted to 3 nM.

Turning to `O=C1NC(c2ccc(OCCCC(F)(F)F)cc2)(C(F)(F)F)CC(c2ccccc2)=C1c1nn[nH]n1` (stereo not shown) [Example 97], the 50% inhibitory concentration (IC50) was 1200 nM.

Regarding `Cc1ccc(C2=C(NC(=O)CNS(C)(=O)=O)C(=O)NC(c3ccc(OCCCC(F)(F)F)cc3)(C(F)(F)F)C2)cc1` (stereo not shown) [Example 297], the half-inhibitory concentration (IC50) was 639 nM.

As for `Cc1ccc(C2=C(C(=O)Nc3nn[nH]n3)C(=O)NC(c3ccc(OCCC(F)(F)F)cc3)(C(F)(F)F)C2)cc1` (stereo not shown) [Example 125], the 50% inhibitory concentration (IC50) came to 282 nM.

`O=C1NC(c2ccc(OCCCCCC(F)(F)F)cc2F)(C(F)(F)F)CC(c2ccc(CC(F)(F)F)cc2)=C1c1nn[nH]n1` (stereo not shown) [Example 284]: the concentration for half-maximal inhibition (IC50) was determined as 4 nM.

For the molecule `Cc1ccc(C2=C(c3nn[nH]n3)C(=O)NC(c3ccc(OCCC4CC4)cc3)(C(F)(F)F)C2)cc1` (stereo not shown) [Example 285], the half-maximal inhibitory concentration (IC50) came out at 4 nM.

With `Cc1ccc(C2=C(NC(=O)c3ccccc3Cl)C(=O)NC(c3ccc(OCCCC(F)(F)F)cc3)(C(F)(F)F)C2)cc1` (stereo not shown) [Example 168], the IC50 is 113 nM.

In the case of `Cc1ccc(C2=C(NC(=O)c3cocn3)C(=O)NC(c3ccc(OCCCC(F)(F)F)cc3)(C(F)(F)F)C2)cc1` (stereo not shown) [Example 151], the IC50 amounted to 5120 nM.

With `Cc1ccc(C2=C(n3cnnc3C)C(=O)NC(c3ccc(OCCCC(F)(F)F)cc3)(C(F)(F)F)C2)cc1` (stereo not shown) [Example 186], the IC50 came out at 229 nM.

Take `COc1ccc(NC(=O)C2=C(c3ccc(C)cc3)CC(C)(C(=O)NCc3ccccc3)NC2=O)cc1` (stereo not shown) [Example 189]: the half-maximal inhibitory concentration (IC50) stood at 1160 nM.

Take `Cc1ccc(C2=C(c3nn[nH]n3)C(=O)NC(c3ccc(OCC4CC(F)(F)C4)cc3)(C(F)(F)F)C2)cc1` (stereo not shown) [Example 288]: the IC50 was 19 nM.

With `O=C1NC(c2ccc(OCCCCCC(F)(F)F)c(F)c2)(C(F)(F)F)CC(c2ccc(OC(F)F)cc2)=C1c1nn[nH]n1` (stereo not shown) [Example 301], the IC50 came out at 19 nM.

As for `Cc1ccc(C2=C(C(=O)Nc3ccc(C#N)cc3)C(=O)NC(c3ccc(OCCCC(F)(F)F)cc3)(C(F)(F)F)C2(F)F)cc1` (stereo not shown) [Example 103, N-(4-Cyanophenyl)-5,5-difluoro-2-oxo-4-p-tolyl-6-(4-(4,4,4-trifluorobutoxyl)phenyl)-6-(trifluoromethyl)-1,2,5,6-tetrahydropyridine-3-carboxamide], the concentration for half-maximal inhibition (IC50) was 645 nM.

Take `Cc1ccc(C2=C(c3nn[nH]n3)C(=O)NC(c3ccc(OCCCC(F)(F)F)cc3)(C(F)F)C2)cc1` (stereo not shown) [Example 213]: the IC50 came to 1100 nM.

For `COOSNc1ccc(C2=C(C#N)C(=O)NC(c3ccc(OCCCC(F)(F)F)cc3)(C(F)(F)F)C2)cc1` (stereo not shown) [Example 225], the concentration for half-maximal inhibition (IC50) came out at 889 nM.

In the case of `Cc1ccc(C2=C(NC(=O)[C@@H](C)O)C(=O)NC(c3ccc(OCCCC(F)(F)F)cc3)(C(F)(F)F)C2)cc1` (stereo partly shown) [Example 253], the concentration for half-maximal inhibition (IC50) was found to be 411 nM.

On to `Cc1ccc(C2=C(C(=O)Nc3ccccc3OC(F)(F)F)C(=O)NC(c3ccc(OCCC(F)(F)F)cc3)(C(F)(F)F)C2)cc1` (stereo not shown) [Example 137], for which the half-inhibitory concentration (IC50) came out at 252 nM.

Turning to `Cc1ccc(C2=C(NC(=O)c3ccn(C)n3)C(=O)NC(c3ccc(OCCCC(F)(F)F)cc3)(C(F)(F)F)C2)cc1` (stereo not shown) [Example 231], the IC50 is 34 nM.

Take `CCCCCCCC#CC1(C(F)(F)F)CC(c2ccc(C)cc2)=C(c2cn[nH]n2)C(=O)N1` (stereo not shown) [Example 196]: the half-inhibitory concentration (IC50) was found to be 826 nM.

With `CCCCCCCC#CC1(C(F)(F)F)CC(c2ccc(OC(F)F)cc2)=C(NC(=O)CS(C)(=O)=O)C(=O)N1` (stereo not shown) [Example 313], the half-inhibitory concentration (IC50) was determined as 4 nM.

Take `O=C1NC(c2ccc(OCCCC(F)(F)F)cc2F)(C(F)(F)F)CC(c2ccc(CC3CC3)cc2)=C1c1nn[nH]n1` (stereo not shown) [Example 277]: the IC50 was found to be 2 nM.

In the case of `COc1ccc(C2=C(c3nn[nH]n3)C(=O)NC(c3ccc(OCCCC(F)(F)F)cc3)(C(F)(F)F)C2)c2c1CCC2` (stereo not shown) [Example 212], the IC50 worked out at 416 nM.

Turning to `N#CC1=C(c2ccc(Cl)c(F)c2)CC(c2ccc(OCCCC(F)(F)F)cc2)(C(F)(F)F)NC1=O` (stereo not shown) [Example 220], the IC50 is 13 nM.

On to `Cc1ccc(C2=C(C(=O)Nc3cn(C)cn3)C(=O)NC(c3ccc(OCCCC(F)(F)F)cc3)(C(F)(F)F)C2)cc1` (stereo not shown) [Example 87], for which the IC50 is 1220 nM.

As for `COc1ccc(C2=C(c3nn[nH]n3)C(=O)NC(c3ccc(OCC(F)(F)F)cc3)(C(F)(F)F)C2)cc1` (stereo not shown) [Example 240], the IC50 was determined as 7 nM.

In the case of `COc1ccc(C(=O)NC2=C(c3ccc(C)cc3)CC(c3cnn(CCCCC(F)(F)F)c3)(C(F)(F)F)NC2=O)cc1` (stereo not shown) [Example 229], the IC50 worked out at 25 nM.

Regarding `CCCCCC#CC1(C(F)(F)F)CC(c2ccc(C)cc2)=C(c2nn[nH]n2)C(=O)N1` (stereo not shown) [Example 293], the IC50 came out at 7 nM.

On to `Cc1ccc(C2=C(NC(=O)c3cc(-c4ccccc4Cl)no3)C(=O)NC(c3ccc(OCCCC(F)(F)F)cc3)(C(F)(F)F)C2)cc1` (stereo not shown) [Example 185], for which the IC50 was determined as 121 nM.

In the case of `Cc1ccc(C2=C(c3nn[nH]n3)C(=O)NC(c3ccc(OCCCCCC(F)(F)F)c(C)c3)(C(F)(F)F)C2)cc1` (stereo not shown) [Example 287], the IC50 is 13 nM.

Turning to `Cc1ccc(C2=C(c3cn[nH]n3)C(=O)NC(C#CC3CC3)(C(F)(F)F)C2)cc1` (stereo not shown) [Example 197], the half-maximal inhibitory concentration (IC50) came to 178 nM.

As to `O=C1NC(c2ccc(OCCCCCC(F)(F)F)cc2F)(C(F)(F)F)CC(c2ccc(OC(F)F)cc2)=C1c1nn[nH]n1` (stereo not shown) [Example 274], the half-maximal inhibitory concentration (IC50) was determined as 1 nM.

For the molecule `COc1ccc(C2=C(c3nn[nH]n3)C(=O)NC(C#CCCc3ccccc3)(C(F)(F)F)C2)cc1` (stereo not shown) [Example 294], the IC50 came out at 84 nM.

Consider `O=C1NC(c2ccc(OCCC(F)(F)F)cc2)(C(F)(F)F)CC(c2ccc(OC(F)(F)F)cc2)=C1c1nn[nH]n1` (stereo not shown) [Example 242], for which the IC50 was 44 nM.

For `CCCCCCC#CC1(C(F)(F)F)CC(c2ccc(C)cc2)=C(NC(=O)CNS(C)(=O)=O)C(=O)N1` (stereo not shown) [Example 298], the half-inhibitory concentration (IC50) was 2 nM.

As for `Cc1ccc(C2=C(C(=O)Nn3cnc([N+](=O)[O-])n3)C(=O)NC(c3ccc(OCCC(F)(F)F)cc3)(C(F)(F)F)C2)cc1` (stereo not shown) [Example 132], the IC50 was 163 nM.

In the case of `CCCCCCC(=O)CNC(=O)C1(C)CC(c2ccc(C)cc2)=C(NC(=O)c2ccc(OC)cc2)C(=O)N1` (stereo not shown) [Example 191], the IC50 was 797 nM.

Turning to `COc1ccc(C(=O)NC2=C(c3ccc(C)cc3)CC(c3ccc(OCCCC(F)(F)F)cc3)NC2=O)cc1` (stereo not shown) [Example 214], the concentration for half-maximal inhibition (IC50) amounted to 12 nM.

Regarding `CS(=O)(=O)CC(=O)NC1=C(c2ccc(OCC(F)F)cc2)CC(c2ccc(OCCCC(F)(F)F)cc2)(C(F)(F)F)NC1=O` (stereo not shown) [Example 251], the IC50 came to 3 nM.

As to `CC(=O)C(=O)NC1=C(c2ccc(C)cc2)CC(c2ccc(OCCCC(F)(F)F)cc2)(C(F)(F)F)NC1=O` (stereo not shown) [Example 250], the IC50 was determined as 243 nM.

For the molecule `COc1cc(C(=O)NC2=C(c3ccc(C)cc3)CC(c3ccc(OCCCC(F)(F)F)cc3)(C(F)(F)F)NC2=O)on1` (stereo not shown) [Example 187], the IC50 worked out at 4 nM.

On to `O=C1NC(c2ccc(OCCCCCC(F)(F)F)c(F)c2)(C(F)(F)F)CC(c2ccc3ccccc3c2)=C1c1nn[nH]n1` (stereo not shown) [Example 309], for which the half-inhibitory concentration (IC50) was determined as 1 nM.

Turning to `COc1ccc(C2=C(NC(=O)c3cc(C)no3)C(=O)NC(c3ccc(OCCCC(F)(F)F)cc3)(C(F)(F)F)C2)cc1` (stereo not shown) [Example 176], the IC50 came out at 3 nM.

On to `CCOc1ccc(C2=C(c3nn[nH]n3)C(=O)NC(c3ccc(OCCCCCC(F)(F)F)c(F)c3)(C(F)(F)F)C2)cc1` (stereo not shown) [Example 305], for which the IC50 came out at 94 nM.

On to `O=C1NC(c2ccc(OCCCC(F)(F)F)cc2)(C(F)(F)F)CC(c2ccc3c(c2)CCCC3)=C1c1nn[nH]n1` (stereo not shown) [Example 210], for which the IC50 was determined as 2 nM.

As to `COc1cccc(C2=C(c3nn[nH]n3)C(=O)NC(c3ccc(OCCCC(F)(F)F)cc3)(C(F)(F)F)C2)c1` (stereo not shown) [Example 100], the IC50 turned out to be 1580 nM.

`COc1ccc(C2=C(NC(=O)CS(C)(=O)=O)C(=O)NC(c3ccc(OCCCC(F)(F)F)cc3)(C(F)(F)F)C2)cc1` (stereo not shown) [Example 252]: the IC50 stood at 7 nM.

For `Cc1ccc(C2=C(NC(=O)c3ccc(OC(F)F)cc3)C(=O)NC(c3cnn(CCCCCC(F)(F)F)c3)(C(F)(F)F)C2)cc1` (stereo not shown) [Example 201], the 50% inhibitory concentration (IC50) was 24 nM.

As for `Cc1ccc(C2=C(c3nn[nH]n3)C(=O)NC(c3ccc(C#CCC4CCCCC4)cc3)(C(F)(F)F)C2)cc1` (stereo not shown) [Example 289], the IC50 was 19 nM.

Turning to `Cc1ccc(C2=C(C#N)C(=O)NC(c3ccc(OCCCC(F)(F)F)cc3)(C(F)(F)F)C2)cc1Cl` (stereo not shown) [Example 259], the half-maximal inhibitory concentration (IC50) was found to be 15 nM.

On to `COc1ccc(C(=O)NC2=C(c3ccc(C)cc3)C(F)(F)C(c3ccc(OCCC(F)(F)F)cc3)(C(F)(F)F)NC2=O)cc1` (stereo not shown) [Example 162], for which the IC50 was found to be 214 nM.

As to `CN(C)c1ccc(C2=C(c3nn[nH]n3)C(=O)NC(c3ccc(OCCCC(F)(F)F)cc3)(C(F)(F)F)C2)cc1` (stereo not shown) [Example 238], the IC50 is 7 nM.

As to `COc1ccc(C2=C(c3ccc(C)cc3)C(F)(F)C(c3ccc(OCCCC(F)(F)F)cc3)(C(F)(F)F)NC2=O)cn1` (stereo not shown) [Example 140], the IC50 worked out at 356 nM.

For the molecule `CCNC(=O)NC1=C(c2ccc(C)cc2)CC(c2ccc(OCCCC(F)(F)F)cc2)(C(F)(F)F)NC1=O` (stereo not shown) [Example 255], the IC50 was 702 nM.
